From US8362021B2, “Method for increasing the bioavailability of benzhydryl piperazine containing compounds” (Zalicus Pharmaceuticals Ltd., priority 2006, dated 2013) come the findings set out here.

A short description of the series: Single dose, open-label food effect pharmacokinetic trial of oral capsules in healthy subjects. The format is in vivo, human. The note with it: for bioavailability / Tmax: human, plasma, po; for bioavailability: healthy subjects; for Tmax: oral administration. The procedure:
A single centre, single dose, open-label trial in healthy subjects was conducted. Study drug treatments were as follows: • Treatment A: Compound No. 1, in capsule form (25-400 mg) administered without food; • Treatment B: Compound No. 1, in capsule form (400-800 mg) administered with a normal fat meal; • Treatment C: Compound No. 1, in capsule form (400-1600 mg) administered with a high-fat meal.
In treatment A, subjects fasted overnight with water permitted up to one hour before dosing. One or more 25 mg or 100 mg capsules of Compound No. 1 were administered with 240 mL room temperature water. Subjects continued to fast for approximately 4 hours until lunch. All meals and snacks provided during the study were low fat and standardized. Additional water was allowed ad lib but there was no caffeine, smoking or alcohol and no vigorous exercise.
In treatments B and C, subjects consumed breakfast the day of the study. Breakfast commenced approximately 30 minutes prior to dosing with dosing occurring within 10 minutes after finishing the meal. One or more 25 mg or 100 mg capsules containing Compound No. 1 were administered to the subjects with 240 mL room temperature water. After dosing, subjects consumed no food until lunch and otherwise followed the same protocol as in treatment A.
In treatment B, a normal fat meal consisted of: toast with 1 pat of butter; a banana; 2% milk; apple juice; and Honey Nut Cheerios®. In treatment C, a high fat meal consisted of: 2 slices of buttered toast, 2 eggs fried in butter, 2 slices of bacon, 4 oz hash brown potatoes and 8 oz of whole milk.
Subjects received one or two doses. There was a washout period of at least 14 days between study drug administrations in those subjects dosed more than once. […] The actual dosing and sample times were recorded on a Case Report Form. At least 15 blood samples were collected during the period from pre-dose through 48 hours post-dose; in most subjects, additional samples were obtained at 60, 72, 120, 168 and 336 hours post-dose. Concentrations of Compound No. 1 were determined in plasma by BASi Northwest Laboratories Inc. (McMinnville, Oreg.) by LC-MS/MS. The lower limit of quantitation for Compound No. 1 was 0.05 ng/mL. Sample values below the lower limit of quantitation were reported as “<0.05 ng/mL”.
Pharmacokinetic parameters were obtained using compartmental methods. Relative exposure was quantified through the term relative bioavailability. In that none of the subjects received an intravenous dose of Compound No. 1, absolute bioavailability could not be determined. […] There were no protocol deviations that confounded the pharmacokinetic analyses.
Statistical analyses were performed using NONMEM version 5. Study results were not corrected for drug potency.

Like-named read-outs stand apart in the source and are kept apart here.

On to `O=C(CC(c1ccccc1)c1ccccc1)N1CCN(C(c2ccccc2)c2ccccc2)CC1` [Compound No. 1, 1-(3,3-diphenylpropionyl)-4-benzhydryl piperazine], for which the “bioavailability, normal fat meal vs high fat meal (individual plasma concentrations, FIGS. 3 and 4)” value (400 mg and 800 mg dosage) is “increased bioavailability”. Further, the decrease of bioavailability (fasting compared to a normal fat meal) was 32%. In addition, where the note is “high fat meal compared to a normal fat meal”, the “increase of bioavailability of capsules” value turned out to be 460%. Also, the bioavailability reads like this: (typical value, read-out: Relative bioavailability, 25-mg capsules (relative to 100-mg capsules)) 148%; (oral capsules, typical value of compartmental NONMEM analysis, read-out: Relative bioavailability, Fasted (relative to normal-fat meal)) 68.2%. Moreover, the Tmax was less than 2 h (subjects fasted), 4 to 5 h (subjects fed a high fat meal) and 2 to 5 h (subjects fed a normal fat meal).
